From patent US7244557B2, “Method of screening modulators of Nod1 signaling” (Regents of the University of Michigan, priority 2003, dated 2007)

Columns and labels:
[1] = tested on: bone marrow-derived macrophages from wild-type mice; experiment: Cytokine secretion assay (ELISA), bone marrow-derived macrophages from wild-type mice; format: cell-based, mouse; settings: 12 hr; for secretion of IL-6 / secretion of TNF-α: 100 ng/ml
Description: (§1) A), B), C) 3×10^5 bone marrow-derived macrophages from wild-type littermates (wt) and nod1-deficient mice were stimulated with 100 ng/ml of iE-DAP, MDP or dsRNA for 12 hr A), B). 0, 100 ng/ml Salmonella typhimurium LPS was used in the presence of 0, 1, 1000 ng/ml iE-DAP or 0, 0.1 1 μM immunostimulatory CpG as indicated for 12 hr C) The concentration of TNF-α (a) and IL-6 (b,c) were determined by ELISA using specific antibodies. Values represent the mean of normalized data±S.D. of triplicate cultures.
Reagents. LPS from S. typhimurium, intact and alkaline-detoxified LPS from E. coli O55:B5 as well as purified lipid A preparations of E. coli F583, MDP, DAP and dsRNA were obtained from Sigma-Aldrich (St. Louis, Mo.). PGN from S. aureus was from Fluka-Chemie (Buchs, Germany). Palmitoyl-Cys ((RS)-2,3-di(palmitoyloxy)-propyl)-Ala-Gly) (sBLP), was obtained from Bachem (Torrance, Calif.). The tetrameric form of the disaccharide dipeptide was described previously (Inohara et al., J. Biol. Chem. 278:5509 [2003]). iE-DAP and iQ-DAP, M3P and M4P were synthesized as described (Kitaura et al., J. Med. Chem. 25:335 [1982]) with small modification. Purification of PGN from B. subtilis 168 and C. flaccumfaciens with hydrolases, Cellosyl or recombinant AtlE (amidase domain) and the fractionation and purification of reduced B. subtilis PGN digested with Cellosyl were performed as previously described (Heilman et al., Mol. Microbiol. 24:1013 [1997]; Atrih et al., J. Bact. 181:3956 [1999]). Removal of proteins and reduction of LPS fraction. E. coli O55:B5 LPS (Sigma) was treated with proteinase K at 37° C. for 12 hr to digest contaminating proteins. To eliminate lipoproteins, LPS was subjected to modified phenol extraction with deoxycholate-containing phenol as described (Hirschfeld et al., J. Immunol. 165:618 [2000]). For reduction of carboxyl group in the LPS, the LPS was treated with 1-ethyl-3-(3-dimethylaminopropyl) carbodiimide and then reduced with NaBH4 as described (Taylor et al., Biochemistry 11:1383 [1972]). Preparation of E. coli extract. E. coli K-12 mutants were all based on the SØ864 genetic background (lacZ trp upp relA rpsL) (Neuhard and Thomassen, J. Bacteriol. 126:999). SØ874 carries a large chromosomal deletion removing the gene clusters for the biosynthesis of CA capsule and O-antigen. CLM5 is a derivative of SØ874 with a transposon insertion in the wecC gene that blocks the synthesis of ECA (Marolda et al., J. Bacteriol. 177:5539[1995]). FAM5 is a derivative of SØ874 carrying a deletion that eliminates the incorporation of heptose in the LPS core. Extracts were prepared from all of these E. coli K-12 strains and also from another E. coli K-12 strain, LCD27 YA21-6 (Obtained from Dr. Arisaka, Tokyo Institute of Technology). Bacteria were cultured overnight at 37° C. in Luria broth, killed by treatment with acetone followed by vacuum drying and finally resuspended in 10 mM HEPES. The extract was treated with 1M NaOH at 55° C. for 12 hr and neutralized with 1M HEPES (pH 7.4). The soluble fraction after centrifugation and filtration with 0.22 μm filter was applied to SUPEROSE 12 gel filtration column chromatography. Partial purification of NOD1-stimulatory molecules from E. coli and composition analyses. The amino acid composition of E. coli O55:B5 LPS was determined using AccQ·Tag amino acid analysis system (Waters, Milford, Mass.) after hydrolysis at 110° C. for 24 hr. […]

[2] = tested on: bone marrow-derived macrophages from nod1-deficient mice; experiment: Cytokine secretion assay (ELISA), bone marrow-derived macrophages from nod1-deficient mice; format: cell-based, mouse; settings: 12 hr
Description: as §1
Reagents. LPS from S. typhimurium, intact and alkaline-detoxified LPS from E. coli O55:B5 as well as purified lipid A preparations of E. coli F583, MDP, DAP and dsRNA were obtained from Sigma-Aldrich (St. Louis, Mo.). PGN from S. aureus was from Fluka-Chemie (Buchs, Germany). Palmitoyl-Cys ((RS)-2,3-di(palmitoyloxy)-propyl)-Ala-Gly) (sBLP), was obtained from Bachem (Torrance, Calif.). The tetrameric form of the disaccharide dipeptide was described previously (Inohara et al., J. Biol. Chem. 278:5509 [2003]). iE-DAP and iQ-DAP, M3P and M4P were synthesized as described (Kitaura et al., J. Med. Chem. 25:335 [1982]) with small modification. Purification of PGN from B. subtilis 168 and C. flaccumfaciens with hydrolases, Cellosyl or recombinant AtlE (amidase domain) and the fractionation and purification of reduced B. subtilis PGN digested with Cellosyl were performed as previously described (Heilman et al., Mol. Microbiol. 24:1013 [1997]; Atrih et al., J. Bact. 181:3956 [1999]). Removal of proteins and reduction of LPS fraction. E. coli O55:B5 LPS (Sigma) was treated with proteinase K at 37° C. for 12 hr to digest contaminating proteins. To eliminate lipoproteins, LPS was subjected to modified phenol extraction with deoxycholate-containing phenol as described (Hirschfeld et al., J. Immunol. 165:618 [2000]). […] The amino acid composition of E. coli O55:B5 LPS was determined using AccQ·Tag amino acid analysis system (Waters, Milford, Mass.) after hydrolysis at 110° C. for 24 hr. […]

[3] = macrophages lacking NOD1, 100 ng/ml

Row | Substance | enhancement of the secretion of IL-6 induced by LPS ([1]; 100 ng/ml Salmonella typhimurium LPS) | secretion of IL-6 [1] | secretion of TNF-α [1] | enhancement of the secretion of IL-6 induced by LPS ([2]; nod1 −/− macrophages, 100 ng/ml Salmonella typhimurium LPS) | secretion of IL-6 [2, 3] | secretion of TNF-α [2, 3]
1 | γ-D-glutamy-meso-diaminopimelic acid [iE-DAP] | enhanced the secretion of IL-6 induced by LPS | induced the secretion | induced the secretion | this effect was impaired |  | 
2 | MurNAc-L-Ala-γ-D-Gln [MDP] |  | induced the secretion | induced the secretion |  | responded | responded
